Test results: patent publication US20200017913A1, “METHODS AND SYSTEMS FOR PREDICTING TREATMENT RESPONSES IN SUBJECTS” (PRESIDENT AND FELLOWS OF HARVARD COLLEGE, priority 2017, published 2020)

These compounds were tested on pancolitis in Patient #2 (assay: Clinical treatment course of Patient #2 with pancolitis). Settings: Patient #2, pancolitis flare, conventional therapies.
Type: in vivo, human
Protocol: Patient #2 was evaluated by a general intestinal doctor […] to receive treatment for bloody stool. […]
This included a glucocorticoid stress dose and a vancomycin treatment.
At that point, the tissue obtained in the most recent colonoscopic biospy was gene expression (RNA) profiled according to an exemplary methodology of the present disclosure. […] In this case, the drug was indigo, an over the counter supplement, also known as Qing Dai.

Structure (SMILES)	clinical response to treatment
Sc1ncnc2nc[nH]c12 [6-mercaptopurine]	no improvement after 3 months
CO[C@H]1/C=C/O[C@@]2(C)Oc3c(C)c(O)c4c(O)c(c5c(nc6cc(C)ccn65)c4c3C2=O)NC(=O)/C(C)=C\C=C\[C@H](C)[C@H](O)[C@@H](C)[C@@H](O)[C@@H](C)[C@H](OC(C)=O)[C@@H]1C [Rifaximin]	transient improvement for a couple weeks
C=CC[C@@H]1/C=C(\C)C[C@H](C)C[C@H](OC)[C@H]2O[C@@](O)(C(=O)C(=O)N3CCCC[C@H]3C(=O)O[C@H](/C(C)=C/[C@@H]3CC[C@@H](O)[C@H](OC)C3)[C@H](C)[C@@H](O)CC1=O)[C@H](C)C[C@@H]2OC [tacrolimus]	mild improvement but no remission
CN[C@H](CC(C)C)C(=O)N[C@H]1C(=O)N[C@@H](CC(N)=O)C(=O)N[C@H]2C(=O)N[C@H]3C(=O)N[C@H](C(=O)N[C@H](C(=O)O)c4cc(O)cc(O)c4-c4cc3ccc4O)[C@H](O)c3ccc(c(Cl)c3)Oc3cc2cc(c3O[C@@H]2O[C@H](CO)[C@@H](O)[C@H](O)[C@H]2O[C@H]2C[C@](C)(N)[C@H](O)[C@H](C)O2)Oc2ccc(cc2Cl)[C@H]1O [vancomycin]	transient effect that lasted about a week
